In brackets after ≈: the same amount, converted by molar mass.
Columns and labels:
[1] = test system: Aspergillus fumigatus (RCMB 02568); experiment: MIC by serial dilution method; format: cell-based; conditions: RCMB02568, fungi, read-out: Minimum inhibitory concentration, MIC, A.F
Description: (§1) All the newly synthesized compounds described in this report were screened for both antibacterial and antifungal activity via the reported agar diffusion well method (Vanden Berghe and Vlietinck, 1991[62]). The inhibition zones and minimum inhibitory concentrations (MIC) were determined by the serial dilution method (Cappuccino and Sherman, 1999[12]). The antimicrobial activity of the synthesized compounds was tested against a broad panel of microorganisms including two Gram-positive bacteria: Streptococcus pneumoniae (RCMB 010010) and Bacillus subtilis (RCMB 010067), two Gram-negative bacteria: Pseudomonas aeruginosa (RCMB 010043) and Escherichia coli (RCMB 010052), and four fungi: Aspergillus fumigatus (RCMB 02568), Syncephalastrum racemosum (RCMB 05922), Geotricum candidum (RCMB 05097), and Candida albicans (RCMB 05036). Ampicillin, ciprofloxacin, gentamicin and amphotericin B were used as positive control drugs (Atta-ur-Rahman and Thomsen, 2001[7]; Smania et al., 1999[57]). […] While in the case of Gm-ve bacteria, they had weak activity. In addition, certain strains of fungi were sensitive to tested compounds with an IZ range from 12-25 except Candida albicans.

[2] = test system: Bacillus subtilis (RCMB 010067); experiment: MIC by serial dilution method; format: cell-based; conditions: RCMB010067, Gm+ve, read-out: Minimum inhibitory concentration, MIC, B.S
Description: as §1

[3] = test system: Escherichia coli (RCMB 010052); experiment: MIC by serial dilution method; format: cell-based; conditions: RCMB010052, Gm-ve, read-out: Minimum inhibitory concentration, MIC, E.C
Description: as §1

[4] = test system: Geotricum candidum (RCMB 05097); experiment: MIC by serial dilution method; format: cell-based; conditions: fungi; read-out: Minimum inhibitory concentration, MIC, G.C
Description: as §1

[5] = test system: Streptococcus pneumoniae (RCMB 010010); experiment: MIC by serial dilution method; format: cell-based; conditions: RCMB010010, Gm+ve, read-out: Minimum inhibitory concentration, MIC, S.P
Description: as §1

[6] = test system: Syncephalastrum racemosum (RCMB 05922); experiment: MIC by serial dilution method; format: cell-based; conditions: RCMB05922, fungi, read-out: Minimum inhibitory concentration, MIC, S.R
Description: as §1

[7] = test system: primary mixed neuronal in vitro culture; experiment: Acute toxicity, LDH release; format: cell-based, rat
Description: In vitro experiments were carried out at the University of Prince Edward Island and approved by the Animal Care and Biosafety Committees, which adheres to the guidelines of the Canadian Council on Animal Care (protocol #14-041 and 15-028). Mixed neocortical cultures, containing both neurons and glia, were prepared from fetal rats at 17-18 days gestation. Briefly, embryonic tissue was extracted from untimed pregnant Sprague-Dawley rats by caesarean section and transferred to ice-cold Hanks Balanced Salt Solution (Gibco). Cortical brain tissue was carefully isolated by fine dissection using aseptic techniques. Cortices were minced in cold HBSS using a sterile razor blade prior to digestion with 0.0125 % trypsin. Dissociated cells were plated in poly-L-lysine (1 mg/ml, Sigma Aldrich) coated 96 well plates at a seeding density of 50000 cells/well in warm (37 °C) Dulbecco's Modified Eagle Medium (Gibco) containing 10 % iron-supplemented bovine calf serum (Hyclone) and 1 % antibiotic/antimycotic (Gibco). Cultures were allowed to adhere overnight in a humidified 37 °C incubator having 5 % CO2 and atmospheric oxygen. The following day, the media was replaced with warmed Neurobasal A Medium (Gibco) containing 0.5 mM L-glutamine (Gibco) and supplemented with 1 % B27, N2 and antibiotic/antimycotic (Gibco). Half-volume media changes were made every 4 days thereafter with experiments being carried out on 14-16 day old cultures. After 14 days in culture, the medium was replaced with deoxygenated unsupplemented glucose-free Neurobasal A containing either 10 or 100 µM of the novel compounds T3, T4, T5, T8, T9, T11, or T12. Control wells contained glucose-free medium plus vehicle - either 0.1 % ethanol or 0.1 % DMSO. Cultures were transferred to a humidified 37 °C incubator having 5 % CO2, 1.1 % O2 and the balance N2 for a period of 24 hours. Following OGD, an equal volume of normal supplemented Neurobasal A containing identical drug concentrations was added and cultures were transferred to normoxic conditions (5 % CO2 and atmospheric oxygen) for an additional 24 h. Cell viability was assessed by measuring LDH release from damaged cells. Control cultures were prepared in separate plates having supplemented Neurobasal A and being maintained in 5 % CO2 and atmospheric oxygen for the duration of the experiment. Toxicity was assessed in wells treated with 10 µM of each of the test compounds listed above. After 24 h an equal volume of culture media as added to each well to account for handling effects on experimental outcomes. Toxicity was assessed after an additional 24 h in culture by measuring LDH release from treated cells. At the end of each experiment, cell injury was assessed by measuring lactate dehydrogenase (LDH) released from damaged cells into the culture medium (Cytoscan LDH Assay, G Biosciences). LDH measurements represent the average of 7 replicate treatments/dose. The effect of OGD and drug treatments on LDH was expressed as a percent of LDH release compared to OGD and vehicle groups. […]
Lactate dehydrogenase (LDH) release in the medium is an enzymatic indicator that illustrates the loss of membrane integrity, apoptosis, or necrosis of a cell. Using a primary mixed neuronal in vitro culture, the cytotoxic effect of the chromene-based compounds (4a, 4c, 7c, 12c, 12k, 13g, and 13h) was assessed by lactate dehydrogenase (LDH) release from cells pretreated with different concentrations after 24 and 48 h of incubation (Figure 9A-C(Fig. 9)). […]

| SMILES | MIC [1] | MIC [2] | MIC [3] | MIC [4] | MIC [5] | MIC [6] | LDH release more than vehicle ([7]; 10 µM, 24 hrs of incubation) | LDH release ([7]; 100 µM, 24 hrs) | LDH release ([7]; 10 µM, 24 hrs of incubation) |
| --- | --- | --- | --- | --- | --- | --- | --- | --- | --- |
| N#CC1=C(N)Oc2c(N)cc3ccccc3c2C1c1ccc(Cl)cc1 (stereo not shown) [4b, 3,5-diamino-1-(4-chlorophenyl)-1H-benzo[f]chromene-2-carbonitrile] | 0.24 µg/mL (≈ 0.69 µM) | 0.007 µg/mL (≈ 0.0201 µM) | 15.6 µg/mL (≈ 44.9 µM) | 0.03 µg/mL (≈ 0.0863 µM) | 0.49 µg/mL (≈ 1.41 µM) | 31.2 µg/mL (≈ 89.8 µM) |  |  |  |
| N#CC1=C(N)Oc2c(ccc3c(N)cccc23)C1c1ccc(F)cc1 (stereo not shown) [7c] |  |  |  |  |  |  | 2-3 folds | more LDH release compared to the vehicle |  |
| N#CC1=C(N)Oc2c(N)cc3ccccc3c2C1c1ccc(F)cc1 (stereo not shown) [4a, 3,5-diamino-1-(4-fluorophenyl)-1H-benzo[f]chromene-2-carbonitrile] | 15.6 µg/mL (≈ 47.2 µM) | 3.9 µg/mL (≈ 11.8 µM) | 7.81 µg/mL (≈ 23.6 µM) |  | 15.6 µg/mL (≈ 47.2 µM) | 7.81 µg/mL (≈ 23.6 µM) | 2-3 folds |  |  |
| Cc1ccc(C2C(C#N)=C(N)Oc3c(N)cc4ccccc4c32)cc1 (stereo not shown) [4c, 3,5-diamino-1-(p-tolyl)-1H-benzo[f]chromene-2-carbonitrile] | 3.9 µg/mL (≈ 11.9 µM) | 7.81 µg/mL (≈ 23.9 µM) | 62.5 µg/mL (≈ 191 µM) | 7.81 µg/mL (≈ 23.9 µM) | 7.81 µg/mL (≈ 23.9 µM) | 31.2 µg/mL (≈ 95.5 µM) |  | ineffective | reduced the LDH release |
| COc1ccc(N=Nc2cc3c(cc2O)OC(N)=C(C#N)C3c2ccc(F)cc2)cc1 (stereo not shown) [13b, 2-Amino-4-(4-fluoro-phenyl)-7-hydroxy-6-(4-methoxy-phenylazo)-4H-chromene-3-carbonitrile] | 62.5 µg/mL (≈ 150 µM) | 3.9 µg/mL (≈ 9.37 µM) | 15.6 µg/mL (≈ 37.5 µM) | 31.2 µg/mL (≈ 74.9 µM) | 31.2 µg/mL (≈ 75 µM) | 62.5 µg/mL (≈ 150 µM) |  |  |  |
